The subject of one data set is MDA-MB-231 cells. Briefly: MTT cell viability assay, MDA-MB-231. It is filed as cell-based. Particulars: Homo sapiens, MDA-MB-231, 48 h, read-out: Cell growth % at 10 µM, MDA-MB-231. The procedure, abridged: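 Cells grown in RPMI 1640 with 10% FBS at 37 °C, 5% CO2 were seeded at 10^4/well and exposed 48 h to compound (0.5–100 µM dose range). Values are % viability at 10 µM, with IC50 ratios non-tumorigenic/tumor as selectivity index.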
On the technique in general: Tetrazolium dyes change colour on reduction, which living cells bring about.

A further data set relates to HCT116 cells. Briefly: MTT cell viability assay, HCT116. It counts as cell-based. Particulars: Homo sapiens, HCT-116, 48 h. How it is done:
(§1) The cell lines were obtained from the American Type Culture Collection (ATCC). Five tumor cell lines (MDA-MB-231, MCF-7, HCT116, HTB-54, and DU-145) and two non-tumorigenic cells (184B5 and BEAS-2B) were grown in RPMI 1640 medium (Gibco), and the HT-29 tumor cell line was grown in McCoy’s medium. Both mediums were supplemented with 10% fetal bovine serum (FBS; Gibco) and 1% antibiotics (10.00 units/mL penicillin and 10.00 μg/mL streptomycin; Gibco). Cells were preserved in tissue culture flasks at 37 °C and 5% CO2. The culture medium was replaced every three days.
(§2) The effect of each compound on cell viability was tested using the MTT assay. […] Selected compounds were then tested at seven different concentrations (0.5–100 μM) in MCF-7, HCT116, HT-29, HTB-54, 184B5 and BEAS-2B cells. Cells were seeded at 10^4 per well onto flat-bottomed 96-well culture plates. They were treated with either DMSO or increasing concentration of the corresponding compound for 48 h. Then, they were incubated with 20 μL of 3-(4,5-dimethylthiazol-2-yl)-2,5-diphenyltetrazolium bromide (MTT) (2 mg /mL stock; Aldrich) for 2,5 h and analyzed for their ability to generate a purple formazan dye. These formazan crystals were dissolved in 50 μL of DMSO. The absorbance was measured at a wavelength of 550 nm and the ratio of viable cells was calculated.
(§3) Results are expressed as cell viability % at 10 μM. Selectivity index were calculated as the ratio of the IC50 values determined for the non-malignant and the tumor cells in breast (IC50 (184B5)/IC50 (MCF-7)) and lung (IC50 (BEAS-2B)/IC50 (HTB-54)) cell lines. Data were obtained from at least three independent experiments performed in triplicates.

In a further data set the test system is MCF-7 cells. Put plainly: MTT cell viability assay, MCF-7. The settings on record: for IC50: Homo sapiens, MCF7, MTT, 48 h; for SI (breast): IC50 (184B5)/IC50 (MCF-7). It counts as cell-based. As for the experimental part: as §1, §2, §3
The test system of the next data set is 184B5 cells. Briefly: MTT cell viability assay, 184B5 (non-tumorigenic). It counts as cell-based. The settings on record: Homo sapiens, 48 h, nonmalignant mammary gland. As for the experimental part:
as §1, §2, §3

The test system of data set [1] is HTB-54, HT-29, HCT116 and MCF-7 cancer cell lines. Briefly: MTT IC50, all tested cancer cell lines. It is filed as cell-based. Particulars: 48 h. How it is done: as §1
as §2, with “calculated. […]” for “calculated.”

The subject of data set [2] is NCI-H322M (non-small cell lung). Briefly: NCI-60 Five-Dose assay, NCI-H322M. It counts as cell-based. The settings on record: Homo sapiens, 48 h. How it is done:
(§4) Compounds 14a and 17a were submitted to the Developmental Therapeutics Program (DTP) of National Cancer Institute (NCI). Cytotoxicity activity was evaluated by performing One-Dose screening (10^−5 M) against a panel of 60 human tumor cell lines. […] Cells grew in the RPMI 1640 medium containing 5% fetal bovine serum and 2 mM L-glutamine and were inoculated into 96-well microtiter plates in 100 μL at plating densities ranging from 5.000 to 40.000 cells/well. The microtiter plates inoculated with cells were incubated at 37 °C, in 5% humidified CO2 for 24 h prior to addition of experimental drugs. Then, experimental drugs were added, and the microtiter plates were incubated for 48 h. The protocol is available on https://dtp.cancer.gov/discovery_development/nci-60/methodology.htm accessed on 31 December 2022.

In a further data set the test system is SK-MEL-5 (melanoma). Briefly: NCI-60 Five-Dose assay, SK-MEL-5. Particulars: Homo sapiens, 48 h. It is filed as cell-based. As for the experimental part:
as §4, with “Cytotoxicity activity was evaluated by performing One-Dose screening (10^−5 M) against a panel of 60 human tumor cell lines.” left out

A further data set has as its system OVCAR-3 (ovarian). Briefly: NCI-60 Five-Dose assay, OVCAR-3. It counts as cell-based. Particulars: Homo sapiens, 48 h. As for the experimental part:
as §4

For the next data set, the system named is OVCAR-8 (ovarian). Put plainly: NCI-60 Five-Dose assay, OVCAR-8. It is filed as cell-based. The settings on record: Homo sapiens, 48 h. How it is done: as §4
Data set [3] has as its system melanoma and ovarian cancer cell lines. Briefly: NCI-60 Five-Dose assay, melanoma and ovarian lines. It counts as cell-based, human. As for the experimental part:
as §4, with “Cytotoxicity activity was evaluated by performing One-Dose screening (10^−5 M) against a panel of 60 human tumor cell lines.” left out

The nature of the next data set: in vitro. As for the experimental part: Franz diffusion cells (Microette 8910130, Hanson Research) were employed to perform this assay. The compounds were dissolved in DMSO at 5 mg/mL and diluted to 500 µg/mL with phosphate-buffered saline (PBS)/EtOH (7:3) to make a stock solution. A total of 10 µL of porcine brain lipid (PBL) diluted in dodecane solution (20 mg/mL) was spread onto a PVDF membrane that was placed between the donor and acceptor compartments, forming a sandwich structure. Then, 4.5 mL of PBS/EtOH (7:3) was added to the acceptor compartment and 700 µL of the stock solution was added to the donor cell. […] The concentration of the compound was calculated from the standard curve and expressed as permeability (Pe) by the following formula [84]:Permeability (cm/s): Pe = {−ln [1 − CA(t)/Ceq]}/[A ∗ (1/VD + 1/VA) ∗ t]
A = filter area ([…]), VD = donor cell volume (0.7 mL), VA = acceptor cell volume (4.5 mL), t = incubation time, CA (t) = compound concentration in acceptor cell at time t, CD (t) = compound concentration in donor cell at time t, and Ceq = [CD(t) ∗ VD + […] ∗ VA]/(VD + VA).
Every sample was analyzed at least in duplicate and the data were reported as mean ± SD.

Bounds are passed on as bounds.

This is an account of results in paper PMC9854712 (Antioxidants, 2023).

Usually IC50 stands for the concentration at which inhibition is half-maximal. One may read the GI50 as the concentration giving 50% growth inhibition. Read a high GI50 as lower sensitivity of the cells. A word on the Papp: it is a coefficient for how fast a substance crosses the barrier. High values mean ready permeation, low ones poor permeation.

In the case of `C=CC[Se]C(=O)Cc1c(C)n(C(=O)c2ccc(Cl)cc2)c2ccc(OC)cc12` [Compound 17a, Se-allyl 2-[1-(4-chlorobenzoyl)-5-methoxy-2-methyl-1H-indol-3-yl]ethaneselenoate], the viability at 10 µM in the data set with MDA-MB-231 cells was 26.5 ± 5.6%. Further, the IC50 in the data set on HCT116 cells was 7 ± 0.9 µM; in the data set on MCF-7 cells it was 9.8 ± 0.3 µM; in the data set with 184B5 cells it was 13.3 ± 3.9 µM; in data set [1] it was under 10 µM. Moreover, in the data set with MCF-7 cells, the “SI (breast)” value is listed as 1.4. Besides, the 50% growth inhibitory concentration (GI50) is 0.42 µM in [2], 1.7 µM with SK-MEL-5 (melanoma), 1.8 µM with OVCAR-3 (ovarian) and 1.7 µM in the data set on OVCAR-8 (ovarian). Further, the LD50 entry in [3] is recorded as “below 9.2 µM”.

Take `C=CC[Se]C(=O)c1ccccc1OC(C)=O` [Compound 14a, 2-(allylselanylcarbonyl)phenylacetate]: the viability at 10 µM in the data set on MDA-MB-231 cells was 38.8 ± 3.6%. The 50% inhibitory concentration (IC50) was 5.9 ± 0.8 µM in the data set with HCT116 cells, 9.9 ± 0.9 µM with MCF-7 cells, 10.2 ± 0.1 µM in the data set with 184B5 cells and under 10 µM in data set [1]. The “SI (breast)” value in the data set with MCF-7 cells amounted to 1.0. The GI50 in [2] worked out at 0.34 µM; in the data set with SK-MEL-5 (melanoma), 1.9 µM; in the data set on OVCAR-3 (ovarian), 1.9 µM; in the data set with OVCAR-8 (ovarian), 1.5 µM. The LD50 entry in [3] was “below 9.2 µM”. In “in vitro” (PAMPA), the Papp at 20 h, 500 µg/mL is 36.9 ± 0.1 ×10⁻⁶ cm/s. Also, the “fold higher Pe compared to galantamine” value in “in vitro” (PAMPA-BBB) turned out to be 3 fold. For the same compound, in the data set “in vitro” (PAMPA-BBB, porcine brain lipid, 20 h, 25 °C), the “Pe ± SD” value is 36.92 ×10⁻⁶ cm/s. Further, the “BBB Permeation (Experimental)” value in “in vitro” (class from PAMPA-BBB Pe) is “High (High BBB permeation predicted; Pe (10^−6 cm s^−1) > 4.0)”.
